Test system: mouse embryonic stem cell clones, each containing a neomycin resistance gene (Neo) inserted by the GTR1.3 gene trap retrovirus
Assay: Carcinogen-induced LOH: frequency of colony formation in 2.0 mg/ml G418
Assay type: cell-based
Conditions: for fold increase of frequency of colony formation: 2 mg/ml G418 0.25 mM HU
Method: Carcinogen-induced LOH was measured in a panel of 53 mouse embryonic stem cell clones, each containing a neomycin resistance gene (Neo) inserted into a different cellular gene (FIG. 9) by the GTR1.3 gene trap retrovirus. Gene entrapment by GTR1.3 involves selection for inserted Neo sequences that can splice to the 3′ ends of cellular genes (Lin et al.,). The disrupted genes were identified by sequencing Neo-gene fusion transcripts and were localized on the mouse genome. Previous studies have shown that cells homozygous for GTR1.3-induced mutations can be selected from heterozygous cells simply by selecting for resistance to higher concentrations of G418, a method first shown to select for homozygous mutations induced by gene targeting (15). Mitotic recombination appears to be the preferred mechanism of spontaneous LOH involving Neo genes inserted in ES cells (17) and LOH involving other genes and cell types in vivo (12, 13). LOH doubles the number of Neo genes per cell and thus allows moderately resistant cells to acquire resistance to higher concentrations of G418. The frequencies of spontaneous LOH measured at the 53 different sites ranged from 1.3×10^−5 to 1.2×10^−4 (Table 3), similar to those reported for other inserted neomycin resistance genes (15, 17) in ES cells and for loci such as TK and APRT in other cell types (12, 13).
A variety of chemical agents were tested for their ability to enhance the frequencies at which mutant cells survive in 2.0 mg/ml G418. Methyl-nitrosurea (MNU) is an alkylating agent that produces a variety of mono-methylated DNA adducts, hydroxyurea (HU) stalls DNA replication complexes, doxorubicin interferes with DNA synthesis, methothrexate is a competitive inhibitor of dihydrofolate reductase but is not genotoxic, diepoxybutane and mitomycin C induce inter-strand DNA crosslinks, UV irradiation causes intra- and inter-strand pyrimidine dimmers, and ethidium bromide intercalates between DNA strands to damage DNA (For additional information about these agents see http://toxnet.nlm.nih.gov and http://lisntweb.swan.ac.uk/cmgt/index.htm). […] The fold-increase for MNU and HU ranged from 39-123 and 18-68, respectively (Table 3). The optimal concentrations of each agent to stimulate colony formation with minimal toxicity (<5% loss of cell viability) were determined in advance (FIG. 13). […] Each of these agents was tested two or more times on at least 25 entrapment lines.
Serially diluted cells were plated onto 150 mm plates containing drug-free media and allowed to attach overnight. Unattached cells were removed and media containing the indicated concentrations of methyl-nitrosourea, hydroxyurea, ethidium bromide, doxorubicin, methotrexate, diepoxybutane, or mitomycin C was put onto cells for 4 hours (or cells were exposed to ultraviolet light in the absence of media and allowed to recover in drug-free media for 4 hours). Cells were then rinsed twice with drug-free media and selection media containing 0.0, 0.3, or 2.0 mg/ml G418 was put onto cells. After 12 days of selection, the number of colonies surviving was counted and the frequency of colony formation was determined by dividing the number of colonies obtained from 2.0 mg/ml G418 selection to that obtained from parallel experiments with 0.3 mg/ml G418 selection. TK gene loss was assessed following selection in media containing 2 μg/ml gancyclovir.
Table 3. The frequency of colony formation in high concentrations of G418. The frequency of colony formation is listed for all 53 clones examined. Frequency was determined by dividing the number of colonies surviving 2.0 mg/ml G418 selection to the number surviving parallel experiments with 0.3 mg/ml G418 selection, and is the average of at least 3 independent experiments for each clone. Standard deviations, which ranged from 5 to 70% of the mean values, have been omitted for clarity. […]

SMILES: NC(=O)NO [HU, hydroxyurea]
- fold-increase of colonies surviving in high G418, range over clones (0.25 mM HU, Table 3 clones): 18-68 fold
- number of colonies surviving in high G418 (0.5 mM MNU or 0.25 mM HU (FIG. 10)): dramatically increased
- fold increase of frequency of colony formation (clone b2p1-a5 (12C3)): (+35-fold)
- fold increase of frequency of colony formation (clone b2p1-a9 (2H1)): (+36-fold)
- fold increase of frequency of colony formation (clone b2p1-b4 (9E1)): (+32-fold)
- fold increase of frequency of colony formation (clone b2p1-b9 (4B1)): (+38-fold)
- fold increase of frequency of colony formation (clone b2p1-c6 (19A)): (+22-fold)
- fold increase of frequency of colony formation (clone b2p1-d3 (19C1)): (+28-fold)
- fold increase of frequency of colony formation (clone b2p1-d8 (4D2.3)): (+40-fold)
- fold increase of frequency of colony formation (clone b2p1-d9 (7E3)): (+38-fold)
- fold increase of frequency of colony formation (clone b2p1-d10 (9A1)): (+19-fold)
- fold increase of frequency of colony formation (clone b2p1-e3 (4D2.3)): (+32-fold)
- fold increase of frequency of colony formation (clone b2p1-e10 (19C1)): (+25-fold)
- fold increase of frequency of colony formation (clone b2p1-f3 (17E1.3)): (+47-fold)
- fold increase of frequency of colony formation (clone b2p1-f10 (3F2.1)): (+33-fold)
- fold increase of frequency of colony formation (clone b2p1-f12 (1H5)): (+25-fold)
- fold increase of frequency of colony formation (clone b2p1-h1 (7A2)): (+21-fold)
- fold increase of frequency of colony formation (clone b2p1-h5 (1H5)): (+42-fold)
- fold increase of frequency of colony formation (clone b2p1-h8 (6A3.3)): (+42-fold)
- fold increase of frequency of colony formation (clone b3p1-h1 (18E2)): (+42-fold)
- fold increase of frequency of colony formation (clone b3p3-a4 (4A5)): (+33-fold)
- fold increase of frequency of colony formation (clone b3p3-a9 (4A5)): (+18-fold)
- fold increase of frequency of colony formation (clone b3p3-b6 (3F1)): (+18-fold)
- fold increase of frequency of colony formation (clone b3p3-c8 (14A3)): (+32-fold)
- fold increase of frequency of colony formation (clone b3p3-c12 (5G2)): (+20-fold)
- fold increase of frequency of colony formation (clone b3p3-d4 (1C3)): (+28-fold)
- fold increase of frequency of colony formation (clone b3p3-d8 (1C2)): (+68-fold)
- fold increase of frequency of colony formation (clone b3p3-d9 (4E2)): (+22-fold)
- fold increase of frequency of colony formation (clone b3p3-g6 (10C2)): (+29-fold)
- fold increase of frequency of colony formation (clone b3p3-g10 (4E1)): (+24-fold)
- fold increase of frequency of colony formation (clone b3p3-h2 (19C1)): (+26-fold)
- fold increase of frequency of colony formation (clone b3p3-h4 (5E2)): (+50-fold)
- fold increase of frequency of colony formation (clone b3p3-h8 (19A)): (+37-fold)
- fold increase of frequency of colony formation (clone b3p4-a1 (4A4)): (+25-fold)
- fold increase of frequency of colony formation (clone b3p4-a5 (3B)): (+36-fold)
- fold increase of frequency of colony formation (clone b3p4-b1 (3A2)): (+44-fold)
- fold increase of frequency of colony formation (clone b3p4-b2 (11B1.3)): (+40-fold)
- fold increase of frequency of colony formation (clone b3p4-b8 (4C6)): (+27-fold)
- fold increase of frequency of colony formation (clone b3p4-b12 (3A1)): (+24-fold)
- fold increase of frequency of colony formation (clone b3p4-c1 (17B3)): (+50-fold)
- fold increase of frequency of colony formation (clone b3p4-c2 (8C3)): (+50-fold)
- fold increase of frequency of colony formation (clone b3p4-c9 (15F2)): (+20-fold)
- fold increase of frequency of colony formation (clone b3p4-c12 (17E2)): (+33-fold)
- fold increase of frequency of colony formation (clone b3p4-d10 (14E5)): (+54-fold)
- fold increase of frequency of colony formation (clone b3p4-d12 (1C3)): (+51-fold)
- fold increase of frequency of colony formation (clone b3p4-e1 (2G3)): (+32-fold)
- fold increase of frequency of colony formation (clone b3p4-e3 (15D3)): (+41-fold)
- fold increase of frequency of colony formation (clone b3p4-e7 (12C1)): (+44-fold)
- fold increase of frequency of colony formation (clone b3p4-f2 (4E1)): (+36-fold)
- fold increase of frequency of colony formation (clone b3p4-f6 (7E3)): (+26-fold)
- fold increase of frequency of colony formation (clone b3p4-f10 (8A4)): (+36-fold)
- fold increase of frequency of colony formation (clone b3p4-g3 (1C3)): (+34-fold)
- fold increase of frequency of colony formation (clone b3p4-g8 (10C1)): (+34-fold)
- fold increase of frequency of colony formation (clone b3p4-g9 (2C2)): (+32-fold)
- fold increase of frequency of colony formation (clone b3p4-h11 (8A1.1)): (+33-fold)
- survival of mutant ES cells in media containing 2.0 mg/ml G418 (ES cells heterozygous for Xrcc5 entrapment mutation, 4 hours with 0.5 mM methyl-nitrosourea, 0.25 mM hydroxyurea or 100 ng/ml diepoxybutane): enhances the survival
- overall extent of LOH induced (single exposure to non-toxic levels): ~1 % of the genome

Source: US20100021895A1, “Vectors for Inducing Homozygous Mutations and Methods of Using Same” (priority 2006, published 2010)
